Experimental data as given in paper PMC4026384, “Antibacterial Activity of THAM Trisphenylguanide against Methicillin-Resistant Staphylococcus aureus” (PLoS ONE, 2014).
Values after ≈ are worked out from the molar mass of the structure shown.

Assays:
[1] = test system: Acinetobacter baumannii ATCC 19606; test: Minimum inhibitory concentration (microdilution); assay type: cell-based; settings: A. baumannii ATCC 19606; LB media; median of at least 3 determinations
Experimental: (§1) Minimum inhibitory concentration (MIC) values were determined for those compounds showing the most antibacterial activity in the bacterial viability assays (see Supplemental Materials) against each of the strains of bacteria using a microdilution method in 96 well plates with LB media according to guidelines published by the British Society for Antimicrobial Chemotherapy. Minimum bactericidal concentrations (MBC) were determined by plating 10 µL and 100 µL from each well showing no signs of growth after overnight incubation of the MIC plates and determining the minimum concentration showing a 3-log reduction of viable bacteria. MIC and MBC were also determined in cation-adjusted Mueller-Hinton broth (Hardy Diagnostics, Santa Maria, CA) for some compounds and strains.

[2] = test system: Enterococcus faecalis ATCC V583; test: Minimum inhibitory concentration (microdilution); assay type: cell-based; settings: E. faecalis V583; LB media; median of at least 3 determinations
Experimental: as §1

[3] = test system: Enterococcus faecalis MSU#10; test: Minimum inhibitory concentration (microdilution); assay type: cell-based; settings: E. faecalis MSU#10; LB media; median of at least 3 determinations
Experimental: as §1

[4] = test system: Escherichia coli (strain K91); test: Minimum inhibitory concentration (microdilution); assay type: cell-based; settings: E. coli K91; LB media; median of at least 3 determinations
Experimental: as §1

[5] = test system: Pseudomonas aeruginosa (strain PA01); test: Minimum inhibitory concentration (microdilution); assay type: cell-based; settings: P. aeruginosa PA01; LB media; median of at least 3 determinations
Experimental: as §1

[6] = test system: Staphylococcus aureus RN4220; test: Minimum inhibitory concentration (microdilution); assay type: cell-based; settings: S. aureus RN4220; LB media; median of at least 3 determinations
Experimental: as §1

[7] = test system: MRSA strain LAC, USA300; test: Minimum inhibitory concentration (microdilution); assay type: cell-based, Staphylococcus aureus; settings: MRSA USA300; LB media; median of at least 3 determinations
Experimental: as §1

[8] = test system: HaCaT human keratinocytes; test: Cell toxicity assay (MTS); assay type: cell-based; settings: for CC50: MTS assay, concentration which killed 50% of the cells
Experimental: The HaCaT cell line was grown in Epilife medium (MEPI500Ca) with human keratinocyte growth supplement (Invitrogen, San Diego, CA). Both types of cells were harvested using Tryspin/EDTA and diluted to 1×10^5 cells per well in a 96-well plate. Ten concentrations covering five orders of magnitude were tested with six replicates per concentration. […] MTS/PMS solution (Promega, Madison, WI) was added to the wells and absorbance was measured at 490 nm two to four hours later. Data was analyzed using GraphPad Prism version 5.0 (GraphPad Software, La Jolla, CA) using a variable slope inhibition dose response curve.

[9] = test system: E. coli K91; test: Bacterial viability assay; assay type: cell-based, Escherichia coli; settings: one hour in PBS, CFU, ± SEM
Experimental: (§2) Supplementary file pone.0097742.s003.doc: Table S1 Bacterial viability assays. Bacteria were grown at 37°C to mid-log phase (OD600 ∼0.4). The bacteria were diluted to approximately 10^4 to 10^5 colony forming units (CFU) per milliliter and added to a solution of phosphate buffered saline (PBS, 16 mM phosphate, 0.14 M NaCl, pH 7.2) containing the compound at varied concentrations. Samples were incubated at 37°C for one hour and then plated on Luria Bertani (LB) agar at appropriate dilutions in PBS. The plates were incubated overnight at 37°C and colonies enumerated the following day. IC50s were calculated from graphs of CFU as a function of compound concentration. Chlorhexidine was used as a positive control. […] (DOC) Click here for additional data file.
(§3) Bacterial viability assays. Bacteria were grown at 37°C to mid-log phase (OD600 ~0.4). The bacteria were diluted to approximately 10^4 to 10^5 colony forming units (CFU) per milliliter and added to a solution of phosphate buffered saline (PBS, 16 mM phosphate, 0.14 M NaCl, pH 7.2) containing the compound at varied concentrations. Samples were incubated at 37°C for one hour and then plated on Luria Bertani (LB) agar at appropriate dilutions in PBS. The plates were incubated overnight at 37°C and colonies enumerated the following day. IC50s were calculated from graphs of CFU as a function of compound concentration. Chlorhexidine was used as a positive control.

[10] = test system: P. aeruginosa PA01; test: Bacterial viability assay; assay type: cell-based, Pseudomonas aeruginosa; settings: one hour in PBS, CFU, ± SEM
Experimental: as §2, §3

[11] = test system: A. baumannii ATCC 19606; test: Bacterial viability assay; assay type: cell-based, Acinetobacter baumannii; settings: one hour in PBS, CFU, ± SEM
Experimental: as §2, §3

[12] = test system: A. baumannii ATCC BAA1605; test: Bacterial viability assay; assay type: cell-based, Acinetobacter baumannii; settings: one hour in PBS, CFU, ± SEM
Experimental: as §2, §3

[13] = test system: E. faecalis MSU#10; test: Bacterial viability assay; assay type: cell-based, Enterococcus faecalis; settings: E. faecalis MSU#10; one hour in PBS, CFU; ± SEM; read-out: IC50
Experimental: as §2, §3

[14] = test system: E. faecalis V583; test: Bacterial viability assay; assay type: cell-based, Enterococcus faecalis; settings: one hour in PBS, CFU, ± SEM
Experimental: as §2, §3

[15] = test system: S. aureus RN4220; test: Bacterial viability assay; assay type: cell-based, Staphylococcus aureus; settings: one hour in PBS, CFU, ± SEM
Experimental: (§4) Supplementary file pone.0097742.s003.doc: Table S1 Bacterial viability assays. Bacteria were grown at 37°C to mid-log phase (OD600 ∼0.4). The bacteria were diluted to approximately 10^4 to 10^5 colony forming units (CFU) per milliliter and added to a solution of phosphate buffered saline (PBS, 16 mM phosphate, 0.14 M NaCl, pH 7.2) containing the compound at varied concentrations. Samples were incubated at 37°C for one hour and then plated on Luria Bertani (LB) agar at appropriate dilutions in PBS. The plates were incubated overnight at 37°C and colonies enumerated the following day. IC50s were calculated from graphs of CFU as a function of compound concentration. Chlorhexidine was used as a positive control. Included are those guanide (G), biguanide (BG), phenylguanide (ΦG) compounds that had some antibacterial activity in an initial screen at 30 and 100 µM, as well as their and parent amines. Compounds synthesized from 1,4-butanediamine, 1,6-hexanediamine, trisethylaminomelamine, trisbutylaminomelamine, and the dendrimer PAMAM (G0) were not active against E. coli, P aeruginosa, or S. aureus so they were not tested against the remaining bacteria (data not shown). (DOC) Click here for additional data file.
as §4, with “Bacterial” for “Supplementary file pone.0097742.s003.doc: Table S1 Bacterial”, “~0.4).” for “∼0.4).”, “μM,” for “µM,”, “shown).” for “shown). (DOC) Click here for additional data file.”

[16] = test system: MRSA USA300; test: Bacterial viability assay; assay type: cell-based, Staphylococcus aureus; settings: one hour in PBS, CFU, ± SEM
Experimental: as §2, §3

Structure (SMILES) | MIC [1] [µg/mL] | MIC [2] [µg/mL] | MIC [3] [µg/mL] | MIC [4] [µg/mL] | MIC [5] [µg/mL] | MIC [6] [µg/mL] | MIC [7] [µg/mL] | Relative to chlorhexidine (factor by which cytotoxicity was reduced) [8] | CC50 [8] [µg/mL] | IC50 [9] [nM] | IC50 [10] [nM] | IC50 [11] [nM] | IC50 [12] [nM] | IC50 [13] [nM] | IC50 [14] [nM] | IC50 [15] [nM] | IC50 [16] [nM]
NCCCCCCCCNc1nc(NCCCCCCCCN)nc(NCCCCCCCCN)n1 [TOAM] | >64 | >64 | >64 | >64 | 64 (≈ 126 µM) | >64 | 48 (≈ 94.5 µM) | 2.1 | 4.1 (≈ 8.07 µM) | 3900 ± 300 | > 100000 | 3900 ± 2000 | 1300 ± 600 | 77000 ± 30000 | > 100000 | > 100000 | 30000
N=C(NCCCCCCCCNc1nc(NCCCCCCCCNC(=N)Nc2ccccc2)nc(NCCCCCCCCNC(=N)Nc2ccccc2)n1)Nc1ccccc1 [TOAM-3ΦG] | >64 | 4 (≈ 4.64 µM) | 2 (≈ 2.32 µM) | 2 (≈ 2.32 µM) | >64 | 2 (≈ 2.32 µM) | 2 (≈ 2.32 µM) | 1.3 | 2.4 (≈ 2.78 µM) | 330 ± 110 | 1000 ± 300 | 450 ± 230 | 1700 | 1200 ± 100 | 1700 ± 400 | 540 ± 90 | 240 ± 30
